# Assay results published in US20100215653A1, “METHODS OF TREATING NEOPLASTIC, AUTOIMMUNE AND INFLAMMATORY DISEASES” (Seattle Genetics, Inc., priority 2006, published 2010).
# Entries after “also recorded” stand apart in the source; their conditions may differ. Read-outs that look alike come from different tables or passages of the source.
# Tests used:
# CD33 [1] = biological target: T1, CD33 (Homo sapiens, UniProt P20138); assay: Recruitment of SHP-1 / SHP-2 / Syk to CD33 (CD33 immunoprecipitation, Western blot); format: cell-based; design: endogenous in cells; host or cells: HL-60, U937; primary human CD14+ monocytes and PBMC-derived macrophages
# T1 sequence (P20138 18-364): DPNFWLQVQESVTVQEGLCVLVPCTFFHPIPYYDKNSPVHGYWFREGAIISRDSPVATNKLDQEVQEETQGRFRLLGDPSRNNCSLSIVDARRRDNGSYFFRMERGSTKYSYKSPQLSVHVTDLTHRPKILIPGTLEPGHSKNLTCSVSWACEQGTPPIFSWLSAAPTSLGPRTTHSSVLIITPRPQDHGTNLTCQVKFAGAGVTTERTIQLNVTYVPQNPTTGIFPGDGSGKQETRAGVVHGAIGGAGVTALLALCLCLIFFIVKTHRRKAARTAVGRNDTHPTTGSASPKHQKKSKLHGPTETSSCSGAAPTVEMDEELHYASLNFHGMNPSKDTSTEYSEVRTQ
# Protocol: To determine whether the humanized M195 antibody also recruits SHP phosphatases, HL-60 cells were treated with soluble or cross-linked anti-CD33 antibodies. Cell extracts were prepared and CD33 was immunoprecipitated with an anti-CD33 antibody (MY9 clone). Western blotting was performed with an anti-SHP-1 antibody (sc-287; Santa Cruz Biotechnology, Inc., Santa Cruz, Calif.).
# To prepare deglycosylated SGN-33, the antibody was treated with PN-glycosidase F (New England BioLabs, Ipswich, Mass.). Deglycosylation was confirmed by CE-SDS. […] Cell lysates were prepared and CD33 immunoprecipitated using an anti-CD33 rabbit polyclonal antibody (Santa Cruz Biotechnology, Santa Cruz, Calif.) prior to SDS PAGE gel electrophoresis. Western blot analyses of these samples were performed using the 4G10 phosphotyrosine antibody (Upstate Biotechnology, Temucula, Calif.), anti-CD33 antibody (NovoCastra, Norwell, Mass.), and anti-SHP-1 antibody (Calbiochem, San Diego, Calif.). Control lysate for SHP-1 was prepared from a B cell lymphoma cell line.
# TF1-α cells = assay: TF1-α disseminated MDR-positive AML model in SCID mice; format: in vivo
# Source text: (§1) The MDR-negative HL60 cell line and the MDR-positive HEL9217 and TF1-α cell lines were used. […] Disease symptoms typically developed between about 35 and about 80 days, and included hind limb paralysis, scruffy coat, weight loss, palpable tumors, and/or tumor masses in bone, peritoneal cavity, or soft tissues. Human CD33+ tumor cells were detected in the blood, bone marrow, and lymph nodes of the majority of the mice by flow cytometry (FIG. 25). Solid tumors associated with bone or soft tissues were found in 20 to 60% of the mice.
# CD33 [2] = biological target: T1, CD33; assay: Apparent Kd by saturation binding using flow cytometry; design: endogenous in cells; host or cells: HL60, KG-1, HEL9217, TF1-α
# Protocol: As a preliminary step, the AML cell lines HL60, KG-1, HEL9217 and TF1-α were assessed for multi-drug resistance (MDR) status and CD33 copy number. MDR status was determined by flow cytometry assessment of Rhodamine (Rh123) efflux at 37° C. […] CD33 copy number was determined by qFACs (DAKO QifiKit) and apparent Kd values by saturation binding measurements using flow cytometry.
# AML tumor cells = assay: ADCP, phagocytosis by monocyte-derived macrophages (flow cytometry); format: cell-based, human; conditions: MDR-positive and MDR-negative AML cells (FIG. 27B)
# Protocol: Target AML tumor cells (KG-1 HEL9217, and TF1α) were labeled with Na^51CrO4 and mixed with enriched CD16^+ effector (NK) cells, prepared using PBMCs from normal donors. The effector to target cell ratio was 10:1. […] Macrophages were labeled with CD11b−FITC or CD14-FITC antibody. Flow cytometric analyses of dual labeled (PKH67+CD11b+ or PKH67+CD14+) cells was used to determine specific uptake (phagocytosis). […] Media were collected 18 h later and analyzed by ELISA for IL-8 or MCP-1.
# [3] = test system: primary human macrophages; assay: Cell viability (CelltiterGlo) of primary human macrophages; format: cell-based; conditions: 24 to 72 hours of exposure to increasing concentrations (FIG. 8)
# Protocol: Macrophages were harvested, counted, and cultured in 96-well plates at 35,000 cells per well. G-CSF-mobilized CD14^+ monocytes (Cambrex) were cultured in 96-well plates at 100,000 cells per well (adherent cells) in sterile polypropylene dishes (non-adherent cells).
# HEL 92.1.7 cells = assay: Complement-dependent cytotoxicity (CDC) activity; format: cell-based, human; conditions: MDR+, CD33-positive HEL 92.1.7 cells (FIG. 4)
# Protocol: The purpose of this study was to determine whether the cytotoxic effects of an anti-CD33 antibody (HuM195) on AML cells could be enhanced by combination treatment with chemotherapeutic drugs. An MDR^+, CD33-positive AML cell line (HEL 92.1.7) was either untreated or preincubated with the indicated concentrations of thalidomide or 5-azacytidine for two hours prior to exposure to the anti-CD33 Ab. Cytotoxic activity was measured using a complement-dependent cytotoxicity (CDC) activity.
# [4] = test system: relapsed and refractory acute myeloid leukemia (AML); conditions: low dose, infrequent administration; cited from earlier work
# human CD14+ monocytes = assay: Cytokine, chemokine and growth factor production by human CD14+ monocytes; format: cell-based
# Protocol: (§2) Tissue culture media was harvested 18 h later for cytokine analyses by ELISA or Searchlight (Pierce Endogen, Rockville, Ill.).
# HEL9217 cells = assay: HEL9217 disseminated MDR-positive AML model in SCID mice; format: in vivo
# Source text: as §1
# [5] = test system: primary human macrophages; assay: Cytokine, chemokine and growth factor production by primary human macrophages; format: cell-based
# Protocol: Primary human macrophages were generated from long-term cultures of freshly isolated human peripheral blood mononuclear cells (PBMCs; AllCells, Emeryville, Calif. or LifeBlood, Memphis, Tenn.). PBMCs were cultured in tissue culture flasks in RPMI 1640 medium containing glutamine (Invitrogen, Grand Island, N.Y.), 10% heat-inactivated FBS, and antibiotics for 3 to 4 hours. Non-adherent cells were removed by washing with PBS and the adherent cells were cultured in OptiMem-I medium (Invitrogen) containing 1% heat-inactivated FBS for 1 to 2 hours. The cells were washed with PBS and cultured for 10 to 14 days in X-VIVO-15 medium (Cambrex Bio Science, Walkersville, Md.) containing 500 U/ml GM-CSF (Peprotech, Rocky Hill, N.J.).
# as §2
substance,measurement,setting,value
"SGN-33: anti-CD33 antibody, a humanized version of mouse monoclonal antibody M195",recruitment of SHP-1 to the CD33 complex,"CD33 [1]; HL-60 and monocytes, 30 minutes (FIG. 16)",resulted in recruitment of SHP-1 to the CD33 complex
same,recruitment of SHP-2 or Syk,"CD33 [1]; HL-60 cells, data not shown",did not recruit SHP-2 or Syk
same,increase of survival,"TF1-α cells; MDR-positive TF1-α model, 4 doses at 10 or 30 mg/kg, p<0.025",greater than 40 days
same,survival,"TF1-α cells; TF1-α model, SCID mice, q4dx4, p<0.005 (FIG. 26)",> 100 days
same,Kd,"CD33 [2]; read-out: Kd (pM) for SGN-33, HEL9217 cells (MDR positive)",144 ± 12 pM
same,Kd,"CD33 [2]; read-out: Kd (pM) for SGN-33, HL60 cells (MDR negative)",123 ± 16 pM
same,Kd,"CD33 [2]; read-out: Kd (pM) for SGN-33, KG-1 cells (MDR negative)",70 ± 20 pM
same,Kd,"CD33 [2]; read-out: Kd (pM) for SGN-33, TF1-α cells (MDR positive)",99 ± 22 pM
same,ADCP activity (phagocytosis),AML tumor cells,antibody-dependent cell phagocytosis of MDR-positive and MDR-negative AML cells; also recorded: mediate phagocytosis of AML tumor cells
same,cell viability of macrophages,[3],not due to an adverse effect; also recorded: does not affect the viability
same,lysis of AML cells (CDC),HEL 92.1.7 cells,increased lysis of AML cell lines in a dose-dependent manner
same,blast cells in patients,[4],induced significant reductions in blast cells
same,"basal and IFN-γ stimulated levels of IL-6, MCP-1, TNF-α, IL-8; IFN-γ stimulated level of RANTES","human CD14+ monocytes; adherent CD14+ monocytes, 48 h (FIG. 10)",reduced the basal levels and IFN-γ stimulated levels
same,"basal and conditioned media stimulated levels of IL-6, MCP-1, IL-8; conditioned media stimulated level of RANTES","human CD14+ monocytes; adherent CD14+ monocytes, RPMI-8228 conditioned media (FIG. 11)",reduced the basal levels and the RPMI-8228 conditioned media stimulated levels
same,level of TNF-α,"human CD14+ monocytes; adherent CD14+ monocytes, basal and RPMI-8228 conditioned media stimulated (FIG. 11)","reduced the basal level, but not the RPMI-8228 conditioned media stimulated level"
same,"levels of IL-6, IL-8, TNF-α and MCP-1",human CD14+ monocytes; non-adherent CD14+ monocytes exposed to SGN-33 (FIG. 12),small increases
same,"production of cytokines, chemokines and growth factors","human CD14+ monocytes; non-adherent CD14+ monocytes, IFN-γ (FIG. 12)","not inhibited by SGN-33, except for the basal level of RANTES"
same,"IFN-γ-stimulated production of IL-1β, IL-10, IL-12 and MIP-1α","human CD14+ monocytes; primary human monocytes treated 1 hr before IFN-γ, 18 h, p<0.001 (FIG. 19)",significantly reduced
same,levels of TNF-α,"human CD14+ monocytes; primary human monocytes, various doses 1 hr before IFN-γ, 18 h, p<0.05 (FIG. 20)",significantly reduced levels of TNF-α in a dose-dependent manner
same,survival,"HEL9217 cells; HEL9217 model, SCID mice, q4dx4, p<0.005 (FIG. 26)",> 80 days
same,increase of survival,"HEL9217 cells; MDR-positive HEL9217 model, 4 doses at 10 or 30 mg/kg, p<0.025",greater than 40 days
same,"production of IL-6, TNF-α, RANTES and MCP-1","[5]; macrophages pre-incubated 3 hours with SGN-33, response to IFN-γ or conditioned media from RPMI-8226 and Karpus-620 cells, 24 h","reduced production of IL-6, TNF-α, RANTES, and MCP-1"
same,levels of TNF-α,"[5]; primary human macrophages, various doses 1 hr before IFN-γ, 18 h, p<0.05 (FIG. 20)",significantly reduced levels of TNF-α in a dose-dependent manner
